Experiments:
Type in all cases: cell-based
BRAF V600E = target: T1, BRAF V600E (Homo sapiens, UniProt P15056, V600E); test: BRAF HiBiT degradation assay, C-terminal HiBiT-tagged BRAF V600E A375 cells (clone 1F10), Nano-Glo HiBiT Lytic assay; conditions: A375 (BRAF V600E, Class 1); for DC50: DC50 at 50% degradation; for Dmax: A-375, observed Dmax, % protein degraded relative to DMSO control
T1 construct: endogenous C-terminal HiBiT fusion tag on BRAF V600E allele; endogenous in cells; host or cells: A375 clone 1F10 (CRISPR-Cas9 knock-in of the HiBiT tag; parental A375 from ATCC)
Outline: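 Steps: seed HiBiT-tagged A375 clone 1F10 cells; incubate 24 h, 37 °C, 5% CO2; add compound (11 half-log points from 1 μM, 0.2% DMSO); lyse with HiBiT detection reagent plus LgBiT for 10 min; read luminescence; fit % protein remaining against concentration.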

BRAF G466V = target: T2, BRAF G466V (Homo sapiens, UniProt P15056, G466V); test: BRAF HiBiT degradation assay, C-terminal HiBiT-tagged BRAF G466V overexpressed in HCT-116 BRAF−/− cells (clone 8), Nano-Glo HiBiT Lytic assay; conditions: BRAF G466V (Class 3), HCT-116 BRAF−/− cells; for DC50: DC50 at 50% degradation; for Dmax: observed Dmax relative to DMSO control
T2 construct: Horizon Discovery (HCT-116 BRAF−/− cells); host or cells: HCT-116 BRAF−/− cells, clone 8, lentiviral transduction
Outline: (§1)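 We quantified degradation of the C-terminally HiBiT-tagged, overexpressed mutant by lytic luminescence, normalizing to DMSO-treated cells with wild-type HCT-116 background subtracted. Dose series ran from 1 μM to 0.01 nM at 0.2% DMSO. Observed Dmax is % degraded at maximal effect.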

BRAF G469A = target: T3, BRAF G469A (Homo sapiens, UniProt P15056, G469A); test: BRAF HiBiT degradation assay, C-terminal HiBiT-tagged BRAF G469A overexpressed in HCT-116 BRAF−/− cells (clone 34), Nano-Glo HiBiT Lytic assay; conditions: BRAF G469A (Class 2), HCT-116 BRAF−/− cells; for DC50: DC50 at 50% degradation; for Dmax: observed Dmax relative to DMSO control
T3 construct: Horizon Discovery (HCT-116 BRAF−/− cells); host or cells: HCT-116 BRAF−/− cells, clone 34, lentiviral transduction
Outline: as §1

BRAF D594G = target: T4, BRAF D594G (Homo sapiens, UniProt P15056, D594G); test: BRAF HiBiT degradation assay, C-terminal HiBiT-tagged BRAF D594G overexpressed in HCT-116 BRAF−/− cells (clone 63), Nano-Glo HiBiT Lytic assay; conditions: BRAF D594G (Class 3), HCT-116 BRAF−/− cells; for DC50: DC50 at 50% degradation; for Dmax: observed Dmax relative to DMSO control
T4 construct: Horizon Discovery (HCT-116 BRAF−/− cells); host or cells: HCT-116 BRAF−/− cells, clone 63, lentiviral transduction
Outline: as §1

T3 sequence (P15056 whole entry G469A): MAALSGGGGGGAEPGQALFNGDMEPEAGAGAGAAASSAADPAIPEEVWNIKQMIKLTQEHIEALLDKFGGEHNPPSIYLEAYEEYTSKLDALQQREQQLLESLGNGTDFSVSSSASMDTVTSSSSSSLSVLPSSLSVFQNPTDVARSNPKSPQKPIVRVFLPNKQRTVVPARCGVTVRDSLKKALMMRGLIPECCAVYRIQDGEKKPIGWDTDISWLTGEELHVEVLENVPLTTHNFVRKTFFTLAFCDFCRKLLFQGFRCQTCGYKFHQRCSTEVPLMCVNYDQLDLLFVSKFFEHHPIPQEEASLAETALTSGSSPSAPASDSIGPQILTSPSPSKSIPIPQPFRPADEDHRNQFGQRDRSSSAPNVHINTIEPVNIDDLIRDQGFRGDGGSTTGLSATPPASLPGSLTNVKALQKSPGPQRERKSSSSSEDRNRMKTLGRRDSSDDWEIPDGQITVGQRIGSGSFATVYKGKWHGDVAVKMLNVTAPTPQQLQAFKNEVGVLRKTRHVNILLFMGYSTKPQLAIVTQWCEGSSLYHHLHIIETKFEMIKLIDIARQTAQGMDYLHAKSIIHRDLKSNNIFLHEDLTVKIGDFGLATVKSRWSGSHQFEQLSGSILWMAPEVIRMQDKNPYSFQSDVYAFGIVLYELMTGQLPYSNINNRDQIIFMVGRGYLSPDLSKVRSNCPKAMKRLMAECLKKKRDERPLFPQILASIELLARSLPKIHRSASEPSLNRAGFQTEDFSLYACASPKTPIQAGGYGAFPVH
T1 sequence (P15056 whole entry V600E, the tested form may be a part): as the sequence (P15056 whole entry G469A) above, with A469G, V600E counted along it
T2 sequence (P15056 whole entry G466V): as the sequence (P15056 whole entry G469A) above, with G466V, A469G counted along it
T4 sequence (P15056 whole entry D594G): as the sequence (P15056 whole entry G469A) above, with A469G, D594G counted along it

Compound: O=C1CCN(c2ccc(N3CCC(CN4CCN(c5cnc(-n6cc(-c7cc(Cl)cc(NS(=O)(=O)N8CCCC8)c7F)c(-c7ccncc7)n6)nc5)CC4)CC3)cc2)C(=O)N1 [Compound 358, N-[5-chloro-3-(1-{5-[4-({1-[4-(2,4-dioxo-1,3-diazinan-1-yl)phenyl]piperidin-4-yl}methyl)piperazin-1-yl]pyrimidin-2-yl}-3-(pyridin-4-yl)-1H-pyrazol-4-yl)-2-fluorophenyl]pyrrolidine-1-sulfonamide]
- DC50 (BRAF V600E): < 10 nM
- Dmax (BRAF V600E): > 70%
- DC50 (BRAF G466V): 10 to 50 nM
- Dmax (BRAF G466V): 30 to 70%
- DC50 (BRAF G469A): > 500 nM
- Dmax (BRAF G469A): 30 to 70%
- DC50 (BRAF D594G): < 10 nM
- Dmax (BRAF D594G): 30 to 70%

Compound: O=C1CC[C@H](c2ccc(N3CCC(CN4CCN(c5cnc(-n6cc(-c7cc(Cl)cc(NS(=O)(=O)N8CCCC8)c7F)c(-c7ccncc7)n6)nc5)CC4)CC3)cc2)C(=O)N1 [Compound 360, N-{5-chloro-3-[1-(5-{4-[(1-{4-[(3R)-2,6-dioxopiperidin-3-yl]phenyl}piperidin-4-yl)methyl]piperazin-1-yl}pyrimidin-2-yl)-3-(pyridin-4-yl)-1H-pyrazol-4-yl]-2-fluorophenyl}pyrrolidine-1-sulfonamide]
- DC50 (BRAF V600E): < 10 nM
- Dmax (BRAF V600E): > 70%
- DC50 (BRAF G466V): < 10 nM
- Dmax (BRAF G466V): > 70%
- DC50 (BRAF G469A): < 10 nM
- Dmax (BRAF G469A): 30 to 70%
- DC50 (BRAF D594G): < 10 nM
- Dmax (BRAF D594G): > 70%

Compound: O=C1CCN(c2ccc(N3CCC(CN4CCN(c5ccc(-n6cc(-c7cc(Cl)cc(NS(=O)(=O)N8CCCC8)c7F)c(-c7ccncc7)n6)cc5F)CC4)CC3)cc2)C(=O)N1 [Compound 361, N-[5-chloro-3-(1-{4-[4-({1-[4-(2,4-dioxo-1,3-diazinan-1-yl)phenyl]piperidin-4-yl}methyl)piperazin-1-yl]-3-fluorophenyl}-3-(pyridin-4-yl)-1H-pyrazol-4-yl)-2-fluorophenyl]pyrrolidine-1-sulfonamide]
- DC50 (BRAF V600E): < 10 nM
- Dmax (BRAF V600E): > 70%
- DC50 (BRAF G466V): < 10 nM
- Dmax (BRAF G466V): > 70%
- DC50 (BRAF G469A): > 500 nM
- Dmax (BRAF G469A): 30 to 70%
- DC50 (BRAF D594G): < 10 nM
- Dmax (BRAF D594G): 30 to 70%

Compound: O=C1CC[C@H](c2ccc(N3CCC(CN4CCN(c5ccc(-n6cc(-c7cc(C(F)F)cc(NS(=O)(=O)N8CCCC8)c7F)c(-c7ccncc7)n6)c(F)c5)CC4)CC3)cc2)C(=O)N1 [Compound 362, N-[5-(difluoromethyl)-3-[1-(4-{4-[(1-{4-[(3R)-2,6-dioxopiperidin-3-yl]phenyl}piperidin-4-yl)methyl]piperazin-1-yl}-2-fluorophenyl)-3-(pyridin-4-yl)-1H-pyrazol-4-yl]-2-fluorophenyl]pyrrolidine-1-sulfonamide]
- DC50 (BRAF V600E): < 10 nM
- Dmax (BRAF V600E): > 70%
- DC50 (BRAF G466V): < 10 nM
- Dmax (BRAF G466V): > 70%
- DC50 (BRAF G469A): 10 to 50 nM
- Dmax (BRAF G469A): 30 to 70%
- DC50 (BRAF D594G): < 10 nM
- Dmax (BRAF D594G): 30 to 70%

Compound: O=C1CC[C@H](c2ccc(N3CCC(CN4CCN(c5ccc(-n6cc(-c7cc(Cl)cc(NS(=O)(=O)N8CCCC8)c7F)c(-c7ccncc7)n6)cc5F)CC4)CC3)cc2)C(=O)N1 [Compound 364, N-{5-chloro-3-[1-(4-{4-[(1-{4-[(3R)-2,6-dioxopiperidin-3-yl]phenyl}piperidin-4-yl)methyl]piperazin-1-yl}-3-fluorophenyl)-3-(pyridin-4-yl)-1H-pyrazol-4-yl]-2-fluorophenyl}pyrrolidine-1-sulfonamide]
- DC50 (BRAF V600E): 10 to 50 nM
- Dmax (BRAF V600E): > 70%
- DC50 (BRAF G466V): < 10 nM
- Dmax (BRAF G466V): > 70%
- DC50 (BRAF G469A): 10 to 50 nM
- Dmax (BRAF G469A): > 70%
- DC50 (BRAF D594G): < 10 nM
- Dmax (BRAF D594G): > 70%

Compound: O=C1CCN(c2ccc(N3CCC(CN4CCN(c5ccc(-n6cc(-c7cc(Cl)cc(NS(=O)(=O)N8CC[C@@H](F)C8)c7F)c(-c7ccncc7)n6)cc5F)CC4)CC3)cc2)C(=O)N1 [Compound 365, (3R)—N-[5-chloro-3-(1-{4-[4-({1-[4-(2,4-dioxo-1,3-diazinan-1-yl)phenyl]piperidin-4-yl}methyl)piperazin-1-yl]-3-fluorophenyl}-3-(pyridin-4-yl)-1H-pyrazol-4-yl)-2-fluorophenyl]-3-fluoropyrrolidine-1-sulfonamide]
- DC50 (BRAF V600E): < 10 nM
- Dmax (BRAF V600E): > 70%
- DC50 (BRAF G466V): < 10 nM
- Dmax (BRAF G466V): 30 to 70%
- DC50 (BRAF G469A): > 500 nM
- Dmax (BRAF G469A): 30 to 70%
- DC50 (BRAF D594G): < 10 nM
- Dmax (BRAF D594G): 30 to 70%

From patent US20260317324A1, “BIFUNCTIONAL COMPOUNDS FOR DEGRADING BRAF VIA UBIQUITIN PROTEOSOME PATHWAY” (Nurix Therapeutics, Inc., priority 2023, published 2026)
